The assay addresses T1, Hsp90α (Homo sapiens, UniProt P07900).
T1 construct: gene HSP90AA1; recombinant human Hsp90α (SPP-776)
Briefly: SPR (Biacore […], immobilized Hsp90α). Format: binding. (SPR reads the build-up and loss of mass on a sensor chip optically.)

As for `NS(=O)(=O)c1ccc(CCn2c(=S)[nH]c3ccccc3c2=O)cc1` [compound 1, 4-(2-(4-Oxo-2-thioxo-1,4-dihydroquinazolin-3(2H)-yl)ethyl)benzene sulfonamide], binding was put at a Kd of 51 ± 2.9 nM.

The record behind these values is article PMC7248782, “Synergistic Anti Leukemia Effect of a Novel Hsp90 and a Pan Cyclin Dependent Kinase Inhibitors” (Molecules, 2020).
